Laboratory results reported in US10456359B2, “Synergistic beverage composition” (Harsha Chigurupati, priority 2015, dated 2019).
Where a SMILES comes first, the peptide text is derived from it.

Key:
[1] = tested on: acetylcholinesterase activity of brain homogenate; settings: Pro: Protection (%), rats, alcohol 5 Day
Experimental: (§4) We have included this parameter to evaluate cognition and memory deficit in experimental animals.
(§5) Experimental Design • (b) Animal study model 1: Saline/Alcohol (4.0 gm/kg/day, p.o.)/Formulation with alcohol (4.0 gm/kg/day, p.o.) were administered (fed orally by orogastric cannula) for one day. 12-16 hours after the dose the animals were sacrificed and blood samples will be collected for estimation of biochemical parameters. Whole brain without cerebellum were dissected out, 10% homogenate was prepared with 0.1 M PB (pH 7.4). The homogenate solution was centrifuged at 10000 rpm for 20 minutes at 4° C. and the supernatant was used for estimation of acetylcholinesterase activity, which was estimated by Ellman's method (Ellman G L et al. A new and rapid colorimetric determination of acetylcholinesterase activity. Biochem Pharmacol, 1961, 7:88.) • (c) Animal study model 2: Saline/Alcohol (4.0 gm/kg/day, p.o.)/Formulation with alcohol (4.0 gm/kg/day, p.o.) were administered (fed orally by orogastric cannula) for 5 consecutive days. 12-16 hours after the last dose, the animals were sacrificed and blood samples were collected for estimation of biochemical parameters. Whole brain without cerebellum were dissected out, 10% homogenate was prepared with 0.1 M PB (pH 7.4). The homogenate solution was centrifuged at 10000 rpm for 20 minutes at 4° C. and the supernatant was used for estimation of acetylcholinesterase activity. […] The latency period of day 5 (before alcohol) was compared with post alcohol latency period (Vorhees C V and Williams M T. Morris water maze: procedures for assessing spatial and related forms of learning and memory, Nat Protoc, 2006, 1(2): 848-58.). % Protection Calculated in Above Experiments: % Protection=1−[(T−NS)/(AL−NS)]×100 T=Mean value of drug treated, NS=Mean value of normal control, AL=Mean value of alcohol alone.
(§6) Male Wistar albino rats weighing 150-200 g were procured and randomly divided into groups consisting of twelve (12) animals in each group. Alcohol induced hangover and CNS related biochemical changes and memory function in rats by oral administration of 30% alcohol (4 gm/kg/day, p.o.) for 1 and 5 days and this group served as the negative control and treated groups received different formulation.
(§7) All drug solutions were prepared in 40% aqueous alcohol, adjusting the pH in the range of 5.0-10.0 for evaluation of alcohol induced hangover and CNS related biochemical parameters.

[2] = tested on: Monocyte chemoattractant protein-1 (MCP-1) from brain homogenate; assay: CNS study, MCP-1 from brain homogenate, alcohol 5 days; format: in vivo, Wistar albino rats; settings: Pro: Protection (%), rats, alcohol 5 Day
[3] = tested on: alkaline phosphatase (ALP); settings: Pro: Protection (%); rats, alcohol 4 gm/kg/day p.o., 5 days, serum
Experimental: The levels of alanine aminotransferase (ALT), aspartate aminotransferase (AST) and alkaline phosphatise (ALP) in serum were measured using commercial spectrophotometric kit bought from Span Diagnostic Ltd. (www.span.in) according to the manufacturer's protocols.
12-16 hours after the last dose, the animals were sacrificed and blood samples were collected for estimation of biochemical parameters.
Male Wistar albino rats weighing 150-200 g were procured and randomly divided into groups consisting of twelve (12) animals in each group. Hepatoprotection was induced by alcohol in rats by oral administration of 30% alcohol (4 gm/kg/day, p.o.) for 5 days and this group served as the negative control and treated groups received different formulation.
All drug solutions were prepared in 40% aqueous alcohol, adjusting the pH in the range of 5.0-10.0 for evaluation of alcohol induced Hepatoprotection. This solution was further diluted with distilled water to obtain 30% aqueous alcoholic solution and administered orally by gavage to different rats group of step (a).

[4] = tested on: interleukin-12 (IL-12) from brain homogenate; assay: CNS study, IL-12 from brain homogenate, alcohol 5 days; format: in vivo, Wistar albino rats; settings: Pro: Protection (%), rats, alcohol 5 Day
Interferon gamma (IFN-γ) [5] = assay: CNS/immunology study, serum IFN-gamma, alcohol 5 days; format: in vivo, Wistar albino rats; settings: Pro: Protection (%), rats, alcohol 5 Day
Description: (§1) Distilled ethanol was obtained from Bengal Chemicals, West Bengal, India. Biochemical kits like AST, ALT, ALP and total protein were obtained from Span Diagnostics Ltd. Surat, India. Rat IL-12 ELISA kit (Elabscience Biotechnology Co. Ltd, WuHan, P.R.C.), Rat CRP ELISA kit (BD Biosciences, USA), Rat IFN-gamma ELISA kit (Biolegend, San Diego, Calif.) Rat MCP-1 ELISA kit (Elabscience Biotechnology Co. Ltd, WuHan, P.R.C.). All the chemicals used in the present study were of analytical grade and obtained from the following companies: Sigma (St. Louis, Mo., USA), Merck (Mumbai, India), S D fine chemicals (Mumbai, India) and Qualigen (Mumbai, India).
(§2) For hangover, 1 day immunology parameter were considered and for CNS, 5 days immunology parameter were considered.

[6] = tested on: interleukin-12 (IL-12) from brain homogenate; assay: Hangover study, IL-12 from brain homogenate, alcohol 1 day; format: in vivo, Wistar albino rats; design: concentration or dose not given beside the values; settings: 1 Day alcohol
[7] = tested on: Monocyte chemoattractant protein-1 (MCP-1) from brain homogenate; assay: Hangover study, MCP-1 from brain homogenate, alcohol 1 day; format: in vivo, Wistar albino rats; settings: 1 Day alcohol
interleukin-12 (IL-12) [8] = assay: CNS/immunology study, serum IL-12, alcohol 5 days; format: in vivo, Wistar albino rats; settings: Pro: Protection (%), rats, alcohol 5 Day
Description: as §2

[9] = tested on: serum alanine aminotransferase (ALT); assay: Hepatoprotection study, serum ALT, alcohol 5 days; format: in vivo, Wistar albino rats; settings: Pro: Protection (%), rats, alcohol 4 gm/kg/day p.o.
Interferon gamma (IFN-γ) [10] = assay: Hangover study, serum IFN-gamma, alcohol 1 day; format: in vivo, Wistar albino rats; design: concentration or dose not given beside the values; settings: 1 Day alcohol
Description: as §1, §2

[11] = tested on: Monocyte chemoattractant protein-1 (MCP-1); assay: Hangover study, serum MCP-1, alcohol 1 day; format: in vivo, Wistar albino rats; design: concentration or dose not given beside the values; settings: 1 Day alcohol
Experimental: (§3) The lowest detectable limit of the kit is 0.1 ng/ml (Wang L, Li Y, Chen J, et al. “Ischemic Cerebral Tissue and MCP-1 Enhance Rat Bone Marrow Stromal Cell Migration in Interface Culture.” Experimental Hematology, 30, 7, 2002, 831-836).
as §2

[12] = tested on: Monocyte chemoattractant protein-1 (MCP-1); assay: CNS/immunology study, serum MCP-1, alcohol 5 days; format: in vivo, Wistar albino rats; settings: Pro: Protection (%), rats, alcohol 5 Day
Experimental: as §3, §2

[13] = tested on: serum C-reactive protein (CRP); assay: CNS/immunology study, serum CRP, alcohol 5 days; format: in vivo, Wistar albino rats; settings: Pro: Protection (%), rats, alcohol 5 Day
Description: as §2

[14] = tested on: aspartate aminotransferase (AST); assay: Hepatoprotection study, serum AST, alcohol 5 days; format: in vivo, Wistar albino rats; settings: Pro: Protection (%), rats, alcohol 4 gm/kg/day p.o.
[15] = tested on: spatial learning and memory; assay: Morris water maze task (escape latency), alcohol 5 days; format: in vivo, Wistar albino rats; settings: Pro: Protection (%), rats, alcohol 5 day
interleukin-12 (IL-12) [16] = assay: Hangover study, serum IL-12, alcohol 1 day; format: in vivo, Wistar albino rats; design: concentration or dose not given beside the values; settings: 1 Day alcohol
Description: as §2

[17] = tested on: acetylcholinesterase activity of brain homogenate; settings: Hangover study, 1 Day alcohol; ingredient amounts in mass concentration (%)
Experimental: as §4, §5, §6, §7

[18] = tested on: serum C-reactive protein (CRP); assay: Hangover study, serum CRP, alcohol 1 day; format: in vivo, Wistar albino rats; settings: 1 Day alcohol
Description: as §2

serum ALT, AST and ALP = assay: Hepatoprotection study overall (rise of serum ALT, AST and ALP), 5 alcohol doses; format: in vivo, Wistar albino rats; settings: 5 alcohol doses of 4 gm/kg per oral

| SMILES | ACHe Pro [1] [%] | Brain MCP-1 Pro [2] [%] | ALP Pro [3] [%] | Brain IL12 Pro [4] [%] | IFN-Gamma Pro (Interferon gamma (IFN-γ) [5]) [%] | Brain IL12 Pro (Protection) [6] [%] | Brain MCP-1 Pro (Protection) [7] [%] | IL12 Pro (interleukin-12 (IL-12) [8]) [%] | ALT Pro [9] [%] | IFN-Gamma Pro (Protection) (Interferon gamma (IFN-γ) [10]) [%] | MCP-1 Pro (Protection) [11] [%] | MCP-1 Pro [12] [%] | CRP Pro [13] [%] | AST Pro [14] [%] | WATER MAZE Pro [15] [%] | IL12 Pro (Protection) (interleukin-12 (IL-12) [16]) [%] | ACHe Pro (Protection) [17] [%] | CRP Pro (Protection) [18] [%] | other results |
| --- | --- | --- | --- | --- | --- | --- | --- | --- | --- | --- | --- | --- | --- | --- | --- | --- | --- | --- | --- |
| CC1(C(=O)O)CCC2(C)CCC3(C)C(=CC(=O)C4C5(C)CCC(OC6OC(C(=O)O)C(O)C(O)C6OC6OC(C(=O)O)C(O)C(O)C6O)C(C)(C)C5CCC43C)C2C1 (stereo not drawn) [0.04 GA, 18β-GA] | 1.43 | 1.58 | 2.78 | 1.28 | 1.07 | 1.09 | 1.15 | 3.08 | 0.89 | 1.25 | 0.6 | 3.38 | 2.37 | 2.18 | 1.58 | 1.05 | 0.59 | 2.04 | – |
| CC1(C(=O)O)CCC2(C)CCC3(C)C(=CC(=O)C4C5(C)CCC(OC6OC(C(=O)O)C(O)C(O)C6OC6OC(C(=O)O)C(O)C(O)C6O)C(C)(C)C5CCC43C)C2C1 (stereo not drawn) [0.04a GA, 18α-GA] | 0.1 | 0.1 | 1.08 | 0.1 | 0.1 | 0.1 | 0.1 | 0.1 | 1.26 | 0.1 | 0.1 | 0.1 | 0.1 | 2.24 | 2.1 | 0.1 | 0.1 | 0.1 | – |
| C[C@H](N)C(=O)N[C@@H](CCC(N)=O)C(=O)O [0.5 DP, L-Ala-L-Gln] (H-Ala-Gln-OH) | 4.33 | 5.12 | 6.95 | 2.35 | 3.32 | 3.69 | 4.59 | 2.64 | 9.13 | 2.58 | 4.33 | 0.1 | 6.13 | 5.86 | 5.18 | 0.54 | 4.33 | 4.05 | – |
| C[C@H](N)C(=O)N[C@@H](CCC(N)=O)C(=O)O [0.75 DP, L-Ala-L-Gln] (H-Ala-Gln-OH) | 6.73 | 9.63 | 12.24 | 7.01 | 5.62 | 7.14 | 10.14 | 13.88 | 5.28 | 6.38 | 5.25 | 0.75 | 3.78 | 9.14 | 13.15 | 14.84 | 8.94 | 15.93 | – |
| CC1(C(=O)O)CCC2(C)CCC3(C)C(=CC(=O)C4C5(C)CCC(OC6OC(C(=O)O)C(O)C(O)C6OC6OC(C(=O)O)C(O)C(O)C6O)C(C)(C)C5CCC43C)C2C1 (stereo not drawn) [GA, 18-beta-Glycyrrhizin] | – | – | – | – | – | – | – | – | – | – | – | – | – | – | – | – | – | – | degree of protection (serum ALT, AST and ALP; GA as such at 0.04-0.3%): 5-25% |
| C[C@H](N)C(=O)N[C@@H](CCC(N)=O)C(=O)O [L-alanine-L-glutamine (DP), L-alanyl-L-glutamine] (H-Ala-Gln-OH) | – | – | – | – | – | – | – | – | – | – | – | – | – | – | – | – | – | – | degree of protection (serum ALT, AST and ALP; dose level of 0.5 to 1.0%): mild effect; degree of protection (serum ALT, AST and ALP; higher doses (2.0 to 3.0%)): high degree of protection |
| OC[C@@H](O)[C@@H](O)[C@H](O)[C@H](O)CO [Mannitol, D-Mannitol] | – | – | – | – | – | – | – | – | – | – | – | – | – | – | – | – | – | – | degree of protection (serum ALT, AST and ALP; individual ingredient at 0.5 to […]): 10-38% |
